# Key:
# [1] = test system: A375 melanoma cells; experiment: Cell viability assay (CellTiter-Glo); assay type: cell-based; details: Homo sapiens, A-375, 72 hours treatment
# Protocol: (§1) Cells that had been seeded 24 hours earlier on poly-L-lysine coated 96-well plates (Sigma-Aldrich) to subconfluency, were treated with drugs at the indicated concentrations for 72 hours. Cytochalasin D (Sigma Aldrich) was used as a positive control. All conditions were repeated in triplicate. Cell viability was determined on day 5 using the CellTiter-Glo Luminescence assay (Promega), according to the manufacturer’s instructions. Luminescence from the plate was read on a BMG LabTech Omega Series plate reader (data analyzed using OMEGA software). Cell viability was calculated as a percentage of the mean vehicle control.
# (§2) For pharmacological analysis, IC50 values were generated using Prism Graphpad software (Graphpad Software, Inc.) and calculated using a nonlinear regression model. Combinatorial drug synergy was assessed by determination of combination index (CI), which was calculated using CalcuSyn (Biosoft) software using the median effects methods as described by Chou and Talalay, CI values less than 0.7 indicated synergy, 0.7–0.9 weak synergy, 0.9–1.1 additivity, 1.1–1.45 indicated weak antagonism and greater than 1.45 antagonism.
# [2] = test system: Human embryonic kidney cells (HEK-293); experiment: Cell viability assay (CellTiter-Glo); assay type: cell-based; details: HEK293, 72 hours treatment
# Protocol: as §1, §2
# [3] = test system: M202 melanoma cells; experiment: Cell viability assay (CellTiter-Glo); assay type: cell-based; details: Homo sapiens, 72 hours treatment
# Protocol: as §1, §2
# [4] = test system: M229 melanoma cells; experiment: Cell viability assay (CellTiter-Glo); assay type: cell-based; details: Homo sapiens, 72 hours treatment
# Protocol: as §1, §2
# [5] = test system: M285 melanoma cells; experiment: Cell viability assay (CellTiter-Glo); assay type: cell-based; details: Homo sapiens, 72 hours treatment
# Protocol: as §1, §2
# [6] = test system: M296 melanoma cells; experiment: Cell viability assay (CellTiter-Glo); assay type: cell-based; details: Homo sapiens, 72 hours treatment
# Protocol: as §1, §2
# [7] = test system: M375 melanoma cells; experiment: Cell viability assay (CellTiter-Glo); assay type: cell-based; details: Homo sapiens
# Protocol: as §1, §2
# [8] = test system: Primary human melanocytes adult (HEMa-LP); experiment: Cell viability assay (CellTiter-Glo); assay type: cell-based; details: Melanocyte, 72 hours treatment
# Protocol: as §1, §2
# [9] = test system: SKmel28 melanoma cells; experiment: Cell viability assay (CellTiter-Glo); assay type: cell-based; details: Homo sapiens, SK-MEL-28, 72 hours treatment
# Protocol: as §1, §2
# [10] = test system: SKmel5 melanoma cells; experiment: Cell viability assay (CellTiter-Glo); assay type: cell-based; details: Homo sapiens; for IC50: SK-MEL-5, 72 hours treatment
# Protocol: as §1, §2
# [11] = test system: rhabdomyosarcoma cells (RD-1); experiment: Cell viability assay (CellTiter-Glo); assay type: cell-based; details: Homo sapiens; for IC50: RD1, 72 hours treatment
# Protocol: as §1, §2
# [12] = test system: A375 melanoma cells; experiment: Cell cycle analysis (PI staining, flow cytometry); assay type: cell-based, human; details: 72 hours
# Protocol: Cell cycle analysis was carried out as previously detailed. In brief, A375 melanoma cells were seeded in 24-well plates at a density of 4,600 cells per well. After 24 hours, the cells were treated with vehicle, 25, 50 and 100 µM of Leflunomide. After 72 hours, the cells were trypsinised and pelleted along with the culture medium. Cells were washed in PBS and fixed in ice-cold absolute ethanol. Cells were then stained with 200 µl PI/RNase A solution (Cell Signalling Technology). Cells were analyzed using a BD Accuri™ C6 flow cytometer (BD Biosciences) and the data was analyzed using the BD Accuri™ C6 Software and FlowJo (FLOWJO, LLC).
# [13] = test system: A375 melanoma cells; experiment: Annexin V apoptosis assay; assay type: cell-based, human; details: 72 hours
# Protocol: Apoptosis was assessed using an Annexin V-FITC Apoptosis detection kit FITC (eBioscience), according to the manufacturer’s instructions. Briefly, cells were seeded in 24-well plates at a density of 4,600 cells per well. After 24 hours, the cells were treated with vehicle or leflunomide (at concentrations of 25, 50 and 100 µM). After 72 hours cells were trypsinised, washed in PBS and treated with fluorochrome-conjugated Annexin V and propidium iodide as indicated in the protocol. Cells were analyzed on the BD Accuri™ C6 flow cytometer and the data analyzed using the instrument software.
# [14] = test system: A375 melanoma cells; experiment: Mitotracker green staining (mitochondrial mass); assay type: cell-based, human
# Protocol: (§3) www.impactjournals.com/oncotarget/ Oncotarget, Supplementary Materials 2017 The anti-rheumatic drug, leflunomide, synergizes with MEK inhibition to suppress melanoma growth
# (§4) Mitochondrial membrane potential [ΔΨM] assay REFERENCES
# (§5) A375 melanoma cells were seeded in 12 well plates at 1. Tap WD, Gong KW, Dering J, Tseng Y, Ginther C, Pauletti a density of 10,000 cells per 1 ml of medium per well. After G, Glaspy JA, Essner R, Bollag G, Hirth P, Zhang C, Slamon 24 hours, the cells were treated with vehicle or leflunomide. DJ. […] Haluska FG, Tsao H, Wu H, Haluska FS, Lazar A, Goel V. of fresh PBS before being analyzed on the BD AccuriTM C6 Genetic alterations in signaling pathways in melanoma. […] Samples were exposed to 488 nm excitation, Cancer Res. 2006; 12:2301s–2307s. with JC-1 green monomer fluorescence detected at 533/30 3. von Euw E, Atefi M, Attar N, Chu C, Zachariah S, Burgess BL, nm in the FL1 channel and JC-1 red aggregates fluorescence Mok S, Ng C, Wong DJ, Chmielowski B, Lichter DI, Koya RC, detected at 585/20 nm in the FL2 channel. […] Data selective MEK inhibitor TAK733 against cutaneous and uveal was analyzed using the BD AccuriTM C6 Software. melanoma cell lines. […]
# (§6) BD AccuriTM C6 flow cytometer (with green fluorescence 6. Atefi M, Titz B, Tsoi J, Avramis E, Le A, Ng C, Lomova A, Lassen detected in the FL1 channel). […]
# [15] = test system: A375 melanoma cells; experiment: BrdU proliferation assay; assay type: cell-based, human; details: increasing concentrations of leflunomide, 72 hours
# Protocol: A375 melanoma cells were seeded in 12-well plates at a density of 10,000 cells and grown on gelatin-coated coverslips. After 24 hours leflunomide was added to cells at 12.5, 25 or 50 μM (or a vehicle control) for 72 hours. Cells were pulsed for 2 hours with BrdU (Sigma-Aldrich) at a final working concentration of 10 μM. Cells were permeabilised in 2N-HCL + 0.5% Triton X-100. Primary BrdU antibody diluted 1:100 in 1% goat serum was applied and incubated overnight at 4°C followed by Alexa Fluor-488 anti-mouse secondary antibody Cells were counterstained with DAPI. Cells were mounted onto slides using hydromount and examined under a Zeiss AxioPlan 2ie widefield microscope with an AxioCam HRm CCD camera. Images were analyzed using Image J software.
# [16] = test system: M375 melanoma tumors; experiment: Mouse xenograft study; assay type: in vivo; details: M375 xenograft in SCID mice, selumetinib 30 mg/kg OG; for tumor volume: 12 days, leflunomide 7.5 mg/kg IP daily, vs vehicle control
# Protocol: 8–10-week-old female severe immunodeficiency (SCID) mice were purchased from Charles River Laboratories. All procedures were performed under UK Home Office approved protocols and the University of East Anglia local guidelines. Experiments were conducted strictly in accordance with the locally approved animal handling protocol.
# A total of 3 × 10^6 M375 melanoma cells were injected subcutaneously into 40 SCID mice. After approximately 4 weeks when the tumors were palpable, the mice were randomized into 4 arms. The 4 arms were; vehicle alone, leflunomide alone, selumetinib alone and leflunomide and selumetinib in combination. There were 10 mice in each arm. The drug regime was administered for 12 days. Leflunomide was administered by intraperitoneal (IP) injection daily at 7.5 mg/kg. Selumetinib was administered by oral gavage (OG) twice daily at 30 mg/kg for the first two days and was then delivered once daily thereafter. The tumor volume was measured every three days with calipers. Tumor volume was measured by the formula 0.52 (length × width^2). At the end of the experiment, the mice were culled and the excised tumors were weighed.
# [17] = test system: A375 melanoma cells; experiment: Mitochondrial membrane potential assay (JC-1); assay type: cell-based, human; details: rising concentrations of leflunomide (25, 50, 100 μM), 72 hours
# Protocol: as §3, §4, §5, §6
# [18] = test system: phospho-ERK; experiment: Western blot of phospho-ERK; assay type: cell-based, human; details: A375 and M202 cells; 0.1 or 1 µM selumetinib
# Protocol: A375 melanoma cells were seeded and treated for 72 hours in varying drug conditions. Total protein extracts were then made using high SDS content lysis buffer (60 mM sucrose, 65 mM Tris-HCl, pH 6.8. 3% SDS). Protein concentration was determined using the DC protein assay (BIORAD). 10 μg of whole-cell protein lysate was loaded onto a 10% SDS-PAGE gel and transferred onto polyvinylidene difluoride membranes (Bio-Rad). A standard Western blot protocol was used for detection of the specific proteins as previously described.
# Antibodies used included; Rabbit polyclonal phospho-ERK (1:1000, Cell Signalling Technology); Rabbit polyclonal phospho-p44/42 MAPK (1:1000, ERK1/2; Cell Signalling Technology); Mouse monoclonal HSC-70 (1:1000, Santa-Cruz Biotechnology); Rabbit polyclonal Mcl-1 (1:500, Santa-Cruz Biotechnology); Rabbit polyclonal anti-BIM (1:500, Merck-Millipore); Rabbit polyclonal PARP (1:1000, Cell Signalling Technology); Rabbit polyclonal PUMA (1:1000, Cell Signalling Technology); anti-rabbit IgG HRP linked secondary antibody (1:2000, Jackson ImmunoResearch); Anti-mouse IgG HRP linked secondary antibody (1:2000, Jackson ImmunoResearch); All anti-rabbit IgG HRP linked secondary antibody (1:2000, Cell Signalling Technology).
structure (smiles),measurement,setting,value
"Cc1oncc1C(=O)Nc1ccc(C(F)(F)F)cc1 [Leflunomide, leflunomide]",IC50,[1],57400 nM
same,IC50,[2],48.1 µM
same,IC50,[3],68100 nM
same,IC50,[4],58200 nM
same,IC50,[5],61.5 µM
same,IC50,[6],112000 nM
same,IC50,"[7]; M375, 72 hours treatment",64100 nM
same,IC50,[8],148 µM
same,IC50,[9],167000 nM
same,IC50,[10],122000 nM
same,IC50,[11],84.2 µM
same,cells in G1 (G0-G1 phase),[12]; 25 μM leflunomide,46.56%
same,cells in sub-G1,[12]; 25 μM leflunomide,5.36%
same,reduction of percentage of cells in G2-M compared to the DMSO control,[12]; 25 μM leflunomide,50%
same,cells in G1 (G0-G1 phase),[12]; 50 μM leflunomide,55.05%
same,cells in S-phase,[12]; 50 μM leflunomide,30.41%
same,cells in sub-G1,[12]; 50 μM leflunomide,9.12%
same,cells in G1 (G0-G1 phase),[12]; 100 μM leflunomide,73.56%
same,cells in S-phase,[12]; 100 μM leflunomide,11.60%
same,cells in sub-G1,[12]; 100 μM leflunomide,11.84%
same,early apoptotic cells (quadrant Q3),[13]; 50 μM leflunomide,49.3%
same,late apoptotic/necrotic cells (quadrant Q2),[13]; 50 μM leflunomide,44.2%
same,early apoptotic cells (quadrant Q3),[13]; 100 μM leflunomide,28.5%
same,late apoptotic/necrotic cells (quadrant Q2),[13]; 100 μM leflunomide,19.1%
same,viability at 25 µM,"[13]; Homo sapiens, A-375, 25μM leflunomide, read-out: viable cells (quadrant Q4)",68%
same,viability at 50 µM,"[13]; Homo sapiens, A-375, 50μM leflunomide, read-out: viable cells (quadrant Q4)",5.91%
same,viability at 100 µM,"[13]; Homo sapiens, A-375, 100μM leflunomide, read-out: viable cells (quadrant Q4)",51.4%
same,increase in the time to reach 5000 events by flow cytometry (sample cell density),[14]; 100 μM leflunomide relative to the 25 μM and 50 μM treated samples,3 fold
same,increase in the amount of green fluorescence (Mitotracker green) compared to the DMSO control,"[14]; 100 μM leflunomide, 72 hours",3 fold
same,number of BrdU positive (proliferating) cells,[15],dose-dependent decrease
same,tumor volume,[16],did not reduce tumor volume
same,tumor weight,"[16]; excised at end of 12-day treatment, leflunomide 7.5 mg/kg IP",did not reduce the tumor volume or weight
same,"mitochondrial membrane potential (JC-1, FL-1 channel)",[17],depolarized
"Cn1cnc2c(F)c(Nc3ccc(Br)cc3Cl)c(C(=O)NOCCO)cc21 [Selumetinib, selumetinib]",IC50,[1],190 nM
same,IC50,[3],500 nM
same,IC50,[4],200 nM
same,IC50,[5],0.5 µM
same,IC50,[6],470 nM
same,IC50,"[7]; M375, 72 hours treatment",100 nM
same,IC50,"[7]; M375 melanoma cell line, Meki alone, combinatorial viability study (Figure 4A(i))",64 nM
same,IC50,[9],430 nM
same,viability at 1 µM,"[10]; SK-MEL-5, 1 μM selumetinib, read-out: cell viability (relative to vehicle control)",51.8%
same,IC50,[10],1010 nM
same,viability at 1 µM,"[11]; RD1, 1 μM selumetinib, read-out: cell viability (relative to vehicle control)",55%
same,IC50,[11],1.05 µM
same,amount of pERK protein,[18],decreases in a dose-dependent manner
same,tumor volume,[16],significantly reduced the average tumor volume
"CCCS(=O)(=O)Nc1ccc(F)c(C(=O)c2c[nH]c3ncc(-c4ccc(Cl)cc4)cc23)c1F [Vemurafenib, vemurafenib]",IC50,[1],700 nM
same,IC50,[3],1700 nM
same,IC50,[4],300 nM
same,IC50,[6],2000 nM
same,IC50,[9],800 nM
same,IC50,[10],150 nM
